We go through 17 compounds from US10174036B2, “Substituted pyrazoles as JAK inhibitors” (WUXI FORTUNE PHARMACEUTICAL CO., LTD, priority 2015, dated 2019).

Some results are limits rather than exact numbers.

Holding throughout (type): biochemical
One assay concerns the target T1, JAK2 (Homo sapiens, UniProt O60674).
T1 construct: purchased Life technology
Briefly: Test for in vitro activity of JAK2 kinase (LANCE Ultra ULight-JAK-1 peptide). The following applies: recombinant human JAK2, 12 uM ATP, 60 min; class symbol. On the procedure: (§1) Test for In Vitro Activity of Jak1, Jak2, and Jak3 Kinase
(§2) Recombinant human […] of JAK1, JAK2 and JAK3 were purchased from Life technology. LANCE Ultra ULight™-JAK-1 (Tyr1023) peptide and LANCE Eu-W1024 Anti-phosphotyrosine (PT66) were purchased from PerkinElmer. Multimode ELISA, Envison(PerkinElmer) reader was used.
The reaction was carried out at room temperature for 60 min and the reaction system was 10 ul.
(§3) Determination for Reaction
(§4) 10 ul detection reagent was added to reaction plate, wherein the final concentration of LANCE Eu-W1024 Anti-phosphotyrosine (PT66) was 2 nM, the final concentration of EDTA was […], incubated at room temperature for 60 min, with Envison reader.
(§5) The reading was converted to inhibition ratio (%) by the following formula: the inhibition ratio (%)=([…])/(Max−Min)×100%.
(TR-FRET usually uses a lanthanide donor and a delayed reading to cut background.)

The next assay addresses T2, JAK3 (Homo sapiens, UniProt P52333).
T2 construct: purchased Life technology
T2 sequence (P52333 1-1124): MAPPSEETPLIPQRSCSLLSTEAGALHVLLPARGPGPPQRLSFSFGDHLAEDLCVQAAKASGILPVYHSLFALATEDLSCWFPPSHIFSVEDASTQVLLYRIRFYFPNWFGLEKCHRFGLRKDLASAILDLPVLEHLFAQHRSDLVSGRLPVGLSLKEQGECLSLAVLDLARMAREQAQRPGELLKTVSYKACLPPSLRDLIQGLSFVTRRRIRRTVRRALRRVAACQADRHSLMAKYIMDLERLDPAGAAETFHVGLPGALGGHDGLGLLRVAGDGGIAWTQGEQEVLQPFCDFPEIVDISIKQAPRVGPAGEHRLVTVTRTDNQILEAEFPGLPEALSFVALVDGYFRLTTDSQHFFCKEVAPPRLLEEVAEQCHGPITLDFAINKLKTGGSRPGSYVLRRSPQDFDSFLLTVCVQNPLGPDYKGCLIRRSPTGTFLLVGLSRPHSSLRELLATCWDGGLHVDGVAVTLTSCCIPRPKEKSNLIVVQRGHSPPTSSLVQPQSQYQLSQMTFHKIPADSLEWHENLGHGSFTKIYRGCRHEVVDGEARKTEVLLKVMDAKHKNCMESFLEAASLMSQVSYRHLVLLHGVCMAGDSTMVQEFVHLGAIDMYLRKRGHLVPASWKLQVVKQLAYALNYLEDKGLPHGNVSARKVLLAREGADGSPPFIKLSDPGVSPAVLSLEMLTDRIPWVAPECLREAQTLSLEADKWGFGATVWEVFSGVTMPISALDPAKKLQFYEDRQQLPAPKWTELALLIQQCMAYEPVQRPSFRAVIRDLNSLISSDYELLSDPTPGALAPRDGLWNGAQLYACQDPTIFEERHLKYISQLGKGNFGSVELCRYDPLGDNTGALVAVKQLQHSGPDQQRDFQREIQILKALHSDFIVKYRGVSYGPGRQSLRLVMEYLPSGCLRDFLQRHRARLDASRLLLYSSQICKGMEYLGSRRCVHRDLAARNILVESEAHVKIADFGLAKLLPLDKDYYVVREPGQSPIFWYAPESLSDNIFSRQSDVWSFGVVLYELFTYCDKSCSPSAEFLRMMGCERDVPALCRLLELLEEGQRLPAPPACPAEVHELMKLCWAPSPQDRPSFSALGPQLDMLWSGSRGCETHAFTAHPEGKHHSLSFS
Briefly: Test for in vitro activity of JAK3 kinase (LANCE Ultra ULight-JAK-1 peptide). The following applies: selectivity ratio JAK3 versus JAK2; class symbol. On the procedure:
as §1, §2
0.05 nM of JAK3 Protein kinase, 50 nM of LANCE Ultra ULight™-JAK-1(Tyr1023) peptide, 4 uM of ATP, 50 mM of HEPES (pH 7.5), 10 mM of MgCl2, 1 mM of EGTA, 2 mM of DTT, 0.01% BRIJ-35. […] The reaction was carried out at room temperature for 90 min and the reaction system was 10 ul.
as §3, §4, §5

The next assay deals with T3, JAK1 (Homo sapiens, UniProt P23458).
T3 construct: purchased Life technology
T3 sequence (P23458 whole entry): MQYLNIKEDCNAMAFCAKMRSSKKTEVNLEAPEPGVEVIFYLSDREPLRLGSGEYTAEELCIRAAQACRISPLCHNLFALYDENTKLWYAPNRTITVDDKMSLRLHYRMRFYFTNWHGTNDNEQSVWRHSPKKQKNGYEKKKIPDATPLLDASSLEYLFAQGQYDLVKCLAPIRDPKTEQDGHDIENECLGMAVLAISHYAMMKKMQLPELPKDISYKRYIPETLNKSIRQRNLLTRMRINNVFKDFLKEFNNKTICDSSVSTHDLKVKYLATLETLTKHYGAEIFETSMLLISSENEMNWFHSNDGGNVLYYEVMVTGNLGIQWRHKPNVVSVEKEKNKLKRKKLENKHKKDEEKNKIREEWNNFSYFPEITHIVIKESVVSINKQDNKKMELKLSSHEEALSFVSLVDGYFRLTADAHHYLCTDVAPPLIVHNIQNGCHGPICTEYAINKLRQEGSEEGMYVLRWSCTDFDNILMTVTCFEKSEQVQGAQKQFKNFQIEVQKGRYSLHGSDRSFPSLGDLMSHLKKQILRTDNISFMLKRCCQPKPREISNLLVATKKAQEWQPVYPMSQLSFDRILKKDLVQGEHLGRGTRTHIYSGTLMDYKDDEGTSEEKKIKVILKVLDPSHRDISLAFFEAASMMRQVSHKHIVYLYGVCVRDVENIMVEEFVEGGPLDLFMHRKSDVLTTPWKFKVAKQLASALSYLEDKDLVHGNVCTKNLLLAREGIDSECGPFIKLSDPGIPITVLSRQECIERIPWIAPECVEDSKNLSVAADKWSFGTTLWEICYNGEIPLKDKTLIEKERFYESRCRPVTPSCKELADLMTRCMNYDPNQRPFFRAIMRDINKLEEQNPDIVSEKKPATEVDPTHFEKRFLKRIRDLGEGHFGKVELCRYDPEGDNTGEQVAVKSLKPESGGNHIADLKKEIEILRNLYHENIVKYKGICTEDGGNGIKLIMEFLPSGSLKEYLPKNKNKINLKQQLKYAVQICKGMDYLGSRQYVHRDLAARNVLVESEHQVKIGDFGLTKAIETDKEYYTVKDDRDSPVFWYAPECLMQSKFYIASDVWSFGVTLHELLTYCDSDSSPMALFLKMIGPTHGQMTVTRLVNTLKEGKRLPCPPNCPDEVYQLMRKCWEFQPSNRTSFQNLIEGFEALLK
The assay can be described thus: Test for in vitro activity of JAK1 kinase (LANCE Ultra ULight-JAK-1 peptide). To be noted: selectivity ratio JAK1 versus JAK2; class symbol. On the procedure:
as §1, §2
The reaction was carried out at room temperature for 90 min and the reaction system was 10 ul.
as §3, §4, §5

T1 sequence (O60674 whole entry): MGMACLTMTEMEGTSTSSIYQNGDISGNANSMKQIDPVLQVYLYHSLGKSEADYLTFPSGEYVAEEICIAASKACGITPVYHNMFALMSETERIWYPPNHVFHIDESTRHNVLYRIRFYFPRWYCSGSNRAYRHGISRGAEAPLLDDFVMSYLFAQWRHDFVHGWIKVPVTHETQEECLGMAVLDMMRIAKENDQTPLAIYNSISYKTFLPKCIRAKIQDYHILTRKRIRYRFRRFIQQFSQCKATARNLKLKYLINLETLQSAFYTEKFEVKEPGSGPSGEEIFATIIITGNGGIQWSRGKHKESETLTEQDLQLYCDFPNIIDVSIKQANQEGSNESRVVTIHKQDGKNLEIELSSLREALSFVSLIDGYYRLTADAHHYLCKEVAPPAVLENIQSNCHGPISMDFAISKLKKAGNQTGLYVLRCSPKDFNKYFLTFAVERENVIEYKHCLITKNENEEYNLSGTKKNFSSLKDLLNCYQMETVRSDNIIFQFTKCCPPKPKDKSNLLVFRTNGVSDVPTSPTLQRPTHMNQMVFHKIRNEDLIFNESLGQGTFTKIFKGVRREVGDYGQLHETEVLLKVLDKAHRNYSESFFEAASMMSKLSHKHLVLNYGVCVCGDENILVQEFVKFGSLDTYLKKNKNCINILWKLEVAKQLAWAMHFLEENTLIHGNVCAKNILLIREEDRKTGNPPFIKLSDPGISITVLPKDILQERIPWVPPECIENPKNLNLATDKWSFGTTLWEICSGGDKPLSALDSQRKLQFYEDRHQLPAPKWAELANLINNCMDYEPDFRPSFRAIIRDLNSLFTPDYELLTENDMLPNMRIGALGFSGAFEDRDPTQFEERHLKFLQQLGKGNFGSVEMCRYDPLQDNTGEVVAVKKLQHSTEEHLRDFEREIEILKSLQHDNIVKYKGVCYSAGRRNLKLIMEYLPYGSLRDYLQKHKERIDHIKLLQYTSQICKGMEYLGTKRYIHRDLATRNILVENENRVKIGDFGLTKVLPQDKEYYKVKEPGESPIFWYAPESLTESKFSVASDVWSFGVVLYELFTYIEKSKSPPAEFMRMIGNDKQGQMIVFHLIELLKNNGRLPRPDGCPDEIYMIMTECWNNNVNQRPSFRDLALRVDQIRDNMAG

Usually IC50 stands for the point on the concentration scale where inhibition reaches its midpoint. For `N#CCC1(n2cc(-c3nccc4nc(NC(=O)C5CC(F)(F)C5)nn34)cn2)CN(S(=O)(=O)C(F)(F)F)C1` [WX32, N-[5-[1-[3-(cyanomethyl)-1-(trifluoromethylsulfonyl)azetidin-3-yl]pyrazole-4-yl]-[1,2,4]triazolo[1,5-c]pyrimidin-2-yl]-3,3-difluoro-cyclobutanecarboxamide], the IC50 on JAK2 was in the range of 100 to 1000 nM. In addition, at JAK3, the “JAK3/JAK2 (times)” value is “F3 (10 < F3 ≤ 25)”. Besides, the “JAK1/JAK2 (times)” value at JAK1 is given as “F2 (5 < F2 ≤ 10)”.
With `N#CCC1(n2cc(-c3nccc4nc(NC(=O)C5CC(O)C5)nn34)cn2)CN(S(=O)(=O)C(F)(F)F)C1` (stereo not drawn) [WX07, N-[5-[1-[3-(cyanomethyl)-1-(trifluoromethylsulfonyl)cyclobutylamine-3-yl]pyrazole-4-yl]-[1,2,4]triazolo[1,5-c]pyrimidin-2-yl]-3-hydroxy-cyclobutane formamide], the IC50 on JAK2 lay in the range of 10 to 100 nM. The “JAK3/JAK2 (times)” value on JAK3 is listed as “F4 (25 < F4 ≤ 100)”. Also, at JAK1, the “JAK1/JAK2 (times)” value is “F2 (5 < F2 ≤ 10)”.
On to `CS(=O)(=O)N1CC(CC#N)(n2cc(-c3cccc4nc(N)oc34)cn2)C1` [WX29, 2-(3-(4-(2-aminobenzo[d]oxazole-7-yl)-1H-pyrazole-1-yl)-1-(methylsulfonyl)azetidin-3-yl)acetonitrile], for which the IC50 at JAK2 was under 10 nM. Further, on JAK3, the “JAK3/JAK2 (times)” value was “F4 (25 < F4 ≤ 100)”. Also, the “JAK1/JAK2 (times)” value on JAK1 is “F3 (10 < F3 ≤ 25)”.
Take `N#CCC1(n2cc(-c3cccc4ncnn34)cn2)CN(S(=O)(=O)C(F)(F)F)C1` [WX17, 2-[3-[4-([1,2,4]triazolo[1,5-a]pyridin-5-)pyrazole-1-]-1-(trifluoromethylsulfonyl)azetidine-3-]acetonitrile]: at JAK2, the IC50 lay within 10 to 100 nM. For the same compound, the “JAK3/JAK2 (times)” value on JAK3 was “F3 (10 < F3 ≤ 25)”. At JAK1, the “JAK1/JAK2 (times)” value is “F1 (1 ≤ F1 ≤ 5)”.
In the case of `N#CCC1(n2cc(-c3cccc4nc(NC(=O)C5CC5)nn34)cn2)CN(S(=O)(=O)C(F)F)C1` [WX14, N-[5-[1-[3-(cyanomethyl)-1-(difluoromethylsulfonyl)azetidine-3-]pyrazole-4-]-[1,2,4]triazolo[1,5-c]pyridin-2-]cyclopropyl carboxamide], the IC50 on JAK2 was under 10 nM. In addition, the “JAK3/JAK2 (times)” value on JAK3 is “F4 (25 < F4 ≤ 100)”. Also, at JAK1, the “JAK1/JAK2 (times)” value was “F2 (5 < F2 ≤ 10)”.
Take `CS(=O)(=O)N1CC(CC#N)(n2cc(-c3nccc4nc(N)nn34)cn2)C1` [WX04, 2-[3-[4-(2-amino-[1,2,4]triazolo[1,5-c]pyrimidin-5-yl)pyrazole-1-yl]-1-methylsulfonyl-cyclobutylamine-3-yl] acetonitrile]: at JAK2, the IC50 is 10 to 100 nM. For the same compound, the “JAK3/JAK2 (times)” value on JAK3 is given as “F3 (10 < F3 ≤ 25)”. In addition, the “JAK1/JAK2 (times)” value on JAK1 is listed as “F1 (1 ≤ F1 ≤ 5)”.
The corresponding values for `N#CCC1(n2cc(-c3nccc4nc(N)nn34)cn2)CN(S(=O)(=O)C(F)(F)F)C1` [WX05, 2-[3-[4-(2-amino-[1,2,4]triazolo[1,5-c]pyrimidin-5-yl)pyrazole-1-yl]-1-(trifluoromethylsulfonyl)cyclobutylamine-3-yl]acetonitrile] are 10 to 100 nM, “F3 (10 < F3 ≤ 25)” and “F1 (1 ≤ F1 ≤ 5)”.
As for `CCS(=O)(=O)N1CC(CC#N)(n2cc(-c3cccc4nc(NC(=O)C5CC5)nn34)cn2)C1` [WX16, N-(5-(1-(3-(cyanomethyl)-1-(ethylsulfony)azetidine-3-yl)-1H-pyrazole-4-yl]-[1,2,4]triazolo[1,5-a]pyridin-2-yl)cyclopropyl carboxamide], the IC50 on JAK2 is under 10 nM. Besides, the “JAK3/JAK2 (times)” value on JAK3 is recorded as “F3 (10 < F3 ≤ 25)”. Besides, at JAK1, the “JAK1/JAK2 (times)” value is listed as “F1 (1 ≤ F1 ≤ 5)”.
Regarding `N#CCC1(n2cc(-c3cccn4nc(NC(=O)C(F)(F)F)nc34)cn2)CN(S(=O)(=O)C2CC2)C1` [WX23], the IC50 at JAK2 was in the range of 100 to 1000 nM. Besides, the “JAK3/JAK2 (times)” value at JAK3 is “F3 (10 < F3 ≤ 25)”. In addition, the “JAK1/JAK2 (times)” value at JAK1 is “F1 (1 ≤ F1 ≤ 5)”.
On to `CN(C)Cc1cc(C(=O)N2CCC(N3CC(CC#N)(n4cc(-c5cccc6nc(NC(=O)C7CC7)nn56)cn4)C3)CC2)nc(C(F)(F)F)n1` [WX33], for which the IC50 on JAK2 was 10 to 100 nM. Besides, on JAK3, the “JAK3/JAK2 (times)” value is reported as “F3 (10 < F3 ≤ 25)”. The “JAK1/JAK2 (times)” value at JAK1 is listed as “F1 (1 ≤ F1 ≤ 5)”.
As to `CCS(=O)(=O)N1CC(CC#N)(n2cc(-c3cccn4nc(NC(=O)C(F)(F)F)nc34)cn2)C1` [WX22, N-(8-(1-(3-(cyanomethyl)-1-(ethylsulfonyl)azetidine-3-yl)-1H-pyrazole-4-yl)-[1,2,4]triazolo[1,5-a]pyridin-2-yl)-2,2,2-trifluoroacetamide], the IC50 on JAK2 was 100 to 1000 nM. The “JAK3/JAK2 (times)” value on JAK3 is reported as “F3 (10 < F3 ≤ 25)”. Besides, at JAK1, the “JAK1/JAK2 (times)” value is “F1 (1 ≤ F1 ≤ 5)”.
In the same order, the values of `CS(=O)(=O)N1CC(CC#N)(n2cc(-c3nccc4nc(NC(=O)CC#N)nn34)cn2)C1` [WX26] are 100 to 1000 nM, “F3 (10 < F3 ≤ 25)” and “F3 (10 < F3 ≤ 25)”.
Consider `N#CCC1(n2cc(-c3cccc4nc(NC(=O)C5CC5)nn34)cn2)CNC1` [WX00, N-[5-[1-[3-(cyanomethyl)azetidine-3-yl]pyrazole-4-yl]-[1,2,4]triazolo[1,5-a]pyridin-2-yl] cyclopropane carboxamide], for which the IC50 on JAK2 fell in the range of 10 to 100 nM. Besides, the “JAK3/JAK2 (times)” value on JAK3 is given as “F4 (25 < F4 ≤ 100)”. In addition, the “JAK1/JAK2 (times)” value on JAK1 was “F1 (1 ≤ F1 ≤ 5)”.
In the case of `CS(=O)(=O)N1CC(CC#N)(n2cc(-c3cccc4nc(NC(=O)C5CC5)oc34)cn2)C1` [WX30, N-(7-(1-(3-(cyanomethyl)-1-(methylsulfonyl)azetidin-3-yl)-1H-pyrazole-4-yl)benzo[d]oxazole-2-yl) cyclopropanecarboxamide], on JAK2, the concentration for half-maximal inhibition (IC50) is under 10 nM. Moreover, the “JAK3/JAK2 (times)” value on JAK3 was “F4 (25 < F4 ≤ 100)”. The “JAK1/JAK2 (times)” value at JAK1 is “F2 (5 < F2 ≤ 10)”.
Regarding `N#CCC1(n2cc(-c3cccc4nc(NC(=O)C5CC5)nn34)cn2)CN(S(=O)(=O)C(F)(F)F)C1` [WX09, N-(5-(1-(3-(cyanomethyl)-1-(trifluoromethylsulfonyl)azetidine-3-yl)-1H-pyrazole-4-yl)-[1,2,4]triazolo[1,5-a]pyridin-2-yl)cyclopropane formamide], on JAK2, the IC50 is under 10 nM. On JAK3, the “JAK3/JAK2 (times)” value was “F4 (25 < F4 ≤ 100)”. Further, the “JAK1/JAK2 (times)” value at JAK1 is on record as “F1 (1 ≤ F1 ≤ 5)”.
Take `CS(=O)(=O)N1CC(CC#N)(n2cc(-c3cccc4nc(NC(=O)C5CC5)nn34)cn2)C1` [WX15]: the IC50 at JAK2 was under 10 nM. For the same compound, on JAK3, the “JAK3/JAK2 (times)” value is on record as “F4 (25 < F4 ≤ 100)”. Besides, the “JAK1/JAK2 (times)” value on JAK1 was “F1 (1 ≤ F1 ≤ 5)”.
In the same order, the values of `CS(=O)(=O)N1CC(CC#N)(n2cc(-c3cccc4nc(NC(=O)C5CC5)sc34)cn2)C1` [WX28, N-(7-(1-(3-(cyanomethyl)-1-(methylsulfonyl)azetidin-3-yl)-1H-pyrazole-4-yl)benzo[d]thiazole-2-yl) cyclopropanecarboxamide] are under 10 nM, “F4 (25 < F4 ≤ 100)” and “F3 (10 < F3 ≤ 25)”.
